From PubChem BioAssay (NCI)
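Five compound concentrations were applied to cells in 96-well plates for 48 hours; endpoints were derived by simple linear interpolation of the resulting dose-response curve. Abbreviation: GI50, concentration required for 50% inhibition of growth. TGI is the concentration that stops growth completely.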

Assays:
Test in all cases: NCI anticancer screen, dose series, 48 h
[1] = system: K-562 leukemia
[2] = system: OVCAR-4 ovarian
[3] = system: 786-0 renal
[4] = system: CCRF-CEM leukemia
[5] = system: EKVX NSCLC
[6] = system: MOLT-4 leukemia
[7] = system: HT29 colon
[8] = system: SR leukemia
[9] = system: IGROV1 ovarian
[10] = system: NCI/ADR-RES ovarian

`Cc1cc(NCCCCCCNc2cc(C)nc3cc(N(C)C)ccc23)c2ccc(N(C)C)cc2n1` was tested, and the TGI [1] was > 100 µM, the TGI [2] was > 100 µM and the TGI [3] was > 100 µM. For the same compound, the TGI [4] was > 100 µM, the TGI [5] was > 100 µM and the TGI [6] was > 100 µM. The TGI [7] was > 100 µM and the TGI [8] was > 100 µM.
`COc1cc(Nc2c(C#N)cnc3cc(OCCCN4CCN(C)CC4)c(OC)cc23)c(Cl)cc1Cl` showed a GI50 [1] of 0.0211 µM, a TGI [1] of 3.82 µM and a GI50 [2] of 4.6 µM. It also gave a TGI [2] of 21 µM, a GI50 [9] of 0.279 µM and a TGI [9] of 3.09 µM. It also gave a GI50 [3] of 2.09 µM, a TGI [3] of 9.93 µM and a GI50 [4] of 1.76 µM. For the same compound, the TGI [4] was 5.74 µM, the GI50 [10] was 4.6 µM and the TGI [10] was 42.9 µM. It also gave a GI50 [6] of 1.91 µM, a TGI [6] of 7.38 µM and a GI50 [7] of 0.689 µM. It also gave a TGI [7] of 5.38 µM, a GI50 [8] of 1.35 µM and a TGI [8] of 4.51 µM.
`Cc1cc2c(C)nn(Cc3ccccc3)c2c(C(N)=O)c1C` was tested, and the TGI [1] was > 100 µM, the TGI [2] was > 100 µM and the TGI [9] was > 100 µM. For the same compound, the TGI [3] was > 100 µM, the TGI [4] was > 100 µM and the TGI [5] was > 100 µM. The TGI [6] was > 100 µM and the TGI [7] was > 100 µM.
In the case of `CCN(CC)CCOc1ccc(CCc2cc(OC)c(OC)c(OC)c2)cc1`, the TGI [1] is reported as > 100 µM, the TGI [2] is reported as > 100 µM and the TGI [9] is reported as > 100 µM. The TGI [3] was > 100 µM, the TGI [4] was > 100 µM and the TGI [5] was > 100 µM. The TGI [6] was 85.2 µM, the TGI [7] was 39 µM and the TGI [8] was > 100 µM.
For `O=C1NC2(CCCCCC2)C2CCCCCCC12O` (stereo not drawn), the TGI [1] was > 100 µM, the TGI [2] was > 100 µM and the TGI [9] was > 100 µM. The TGI [3] was > 100 µM, the TGI [4] was > 100 µM and the TGI [5] was > 100 µM. For the same compound, the TGI [6] was > 100 µM, the TGI [7] was > 100 µM and the TGI [8] was > 100 µM.
`c1csc(-c2cn3nc(-c4c[nH]c5ccccc45)sc3n2)c1` was tested, and the GI50 [1] was 0.382 µM, the TGI [1] was 39.9 µM and the GI50 [2] was 4.42 µM. For the same compound, the TGI [2] was > 100 µM, the GI50 [9] was 1.79 µM and the TGI [9] was > 100 µM. For the same compound, the GI50 [3] was 3.06 µM, the TGI [3] was > 100 µM and the GI50 [4] was 2.19 µM. For the same compound, the TGI [4] was 27.2 µM, the GI50 [10] was 0.561 µM and the TGI [10] was > 100 µM. For the same compound, the GI50 [5] was 1.99 µM, the TGI [5] was > 100 µM and the GI50 [7] was 0.413 µM. It also gave a TGI [7] of 10.2 µM.
`COC(=O)[C@@]12OC[C@]34[C@H]([C@@H](O)[C@@H]1O)[C@@]1(C)[C@H](O)C(=O)C=C(C)[C@@H]1C[C@H]3OC(=O)C(OC(C)=O)[C@@H]24` (stereo partly drawn) gave a GI50 [1] of 0.0314 µM, a GI50 [2] of 0.0398 µM and a TGI [2] of 0.272 µM. It also gave a GI50 [9] of 0.0302 µM, a TGI [9] of 0.134 µM and a GI50 [3] of 0.026 µM. The TGI [3] was 0.0889 µM, the GI50 [10] was 0.904 µM and the TGI [10] was 8.53 µM. For the same compound, the GI50 [5] was 0.0529 µM, the TGI [5] was 0.372 µM and the GI50 [6] was < 0.0145 µM. The TGI [6] was 0.0487 µM, the GI50 [7] was 0.0303 µM and the TGI [7] was 0.136 µM. It also gave a GI50 [8] of 0.0195 µM and a TGI [8] of 0.0425 µM.
With `Clc1ccc(N=Nc2nc3ccccc3nc2N=Nc2ccc(Cl)cc2Cl)c(Cl)c1` the TGI [1] was > 100 µM, the TGI [2] was > 100 µM and the TGI [9] was > 100 µM. The TGI [3] was > 100 µM, the TGI [5] was > 100 µM and the TGI [6] was > 100 µM. For the same compound, the TGI [7] was > 100 µM and the TGI [8] was > 100 µM.
Compound `O=c1oc(Cl)c(Cl)c2ccccc12` has a GI50 [1] of 27.2 µM, a TGI [1] of 70.5 µM and a GI50 [2] of 30 µM. For the same compound, the TGI [2] was > 100 µM, the GI50 [9] was 23.2 µM and the TGI [9] was 63.2 µM. The GI50 [3] was 19.2 µM, the TGI [3] was 40.4 µM and the GI50 [10] was 18.1 µM. For the same compound, the TGI [10] was 41.3 µM, the GI50 [5] was 18.8 µM and the TGI [5] was 44.3 µM. It also gave a GI50 [6] of 9.19 µM, a TGI [6] of 78.2 µM and a GI50 [7] of 34.9 µM. For the same compound, the TGI [7] was > 100 µM.
In the case of `COc1cc([C@@H]2c3cc4c(cc3[C@@H](OC(=O)c3ccc(N)cc3)C3COC(=O)[C@@H]32)OCO4)cc(OC)c1O` (stereo partly drawn), the TGI [1] is reported as > 95 µM, the TGI [2] is reported as > 95 µM and the TGI [9] is reported as 17.3 µM. For the same compound, the TGI [3] was 59 µM, the TGI [4] was > 95 µM and the TGI [5] was > 95 µM. It also gave a TGI [6] of 67.4 µM and a TGI [7] of 21.2 µM.
With `N.N.N.N.N.[Cl-].[Co+3].c1ccc(-c2nn[n-]n2)cc1` the GI50 [1] was > 100 µM, the TGI [1] was > 100 µM and the GI50 [2] was > 100 µM. For the same compound, the TGI [2] was > 100 µM, the GI50 [9] was > 100 µM and the TGI [9] was > 100 µM. The GI50 [3] was > 100 µM, the TGI [3] was > 100 µM and the GI50 [4] was > 100 µM. For the same compound, the TGI [4] was > 100 µM, the GI50 [5] was > 100 µM and the TGI [5] was > 100 µM. The GI50 [6] was > 100 µM, the TGI [6] was > 100 µM and the GI50 [7] was > 100 µM. The TGI [7] was > 100 µM, the GI50 [8] was > 100 µM and the TGI [8] was > 100 µM.
For `Cc1ccc(C(CC(=O)c2ccccc2)C2C(=O)NC(=O)NC2=O)cc1` (stereo not drawn), the GI50 [1] was > 100 µM, the TGI [1] was > 100 µM and the GI50 [2] was > 100 µM. For the same compound, the TGI [2] was > 100 µM, the GI50 [9] was > 100 µM and the TGI [9] was > 100 µM. For the same compound, the GI50 [3] was > 100 µM, the TGI [3] was > 100 µM and the GI50 [4] was > 100 µM. The TGI [4] was > 100 µM, the GI50 [10] was > 100 µM and the TGI [10] was > 100 µM. For the same compound, the GI50 [5] was > 100 µM, the TGI [5] was > 100 µM and the GI50 [6] was > 100 µM. The TGI [6] was > 100 µM, the GI50 [7] was > 100 µM and the TGI [7] was > 100 µM.
For `CCC(C)[C@H]1O[C@]2(C=C[C@@H]1C)C[C@@H]1C[C@@H](C/C=C(\C)[C@@H](OC3C[C@H](OC)C(O[C@H]4C[C@H](OC)[C@@H](O)[C@H](C)O4)[C@H](C)O3)[C@@H](C)/C=C/C=C3\CO[C@@H]4[C@H](O)C(C)=C[C@@H](C(=O)O1)[C@]34O)O2` (stereo partly drawn), the GI50 [2] was 1.67 µM, the TGI [2] was 4.76 µM and the GI50 [3] was 0.728 µM. For the same compound, the TGI [3] was 1.56 µM, the GI50 [10] was 1.41 µM and the TGI [10] was 4.77 µM. The GI50 [7] was 0.857 µM and the TGI [7] was 1.78 µM.
For `c1ccc(CN2CCC3(CC2)SSC2(CCN(Cc4ccccc4)CC2)S3)cc1`, the TGI [1] was > 100 µM, the TGI [2] was > 100 µM and the TGI [9] was > 100 µM. For the same compound, the TGI [3] was > 100 µM, the TGI [4] was > 100 µM and the TGI [10] was > 100 µM. The TGI [6] was > 100 µM, the TGI [7] was 43.5 µM and the TGI [8] was > 100 µM.
In the case of `CCN(Cc1ccc(F)cc1)c1ccc(CO)c(F)c1`, the GI50 [1] is reported as 7.46 µM, the TGI [1] is reported as > 73.5 µM and the GI50 [2] is reported as 3.93 µM. For the same compound, the TGI [2] was 27.6 µM, the GI50 [9] was 1.26 µM and the TGI [9] was 5.03 µM. For the same compound, the GI50 [3] was 12.6 µM, the TGI [3] was 36.6 µM and the GI50 [4] was 21.5 µM. For the same compound, the TGI [4] was > 74.6 µM, the GI50 [10] was 18 µM and the TGI [10] was 68.7 µM. For the same compound, the GI50 [6] was 21.2 µM, the TGI [6] was 57.6 µM and the GI50 [7] was 16 µM. The TGI [7] was > 53.9 µM, the GI50 [8] was 15.1 µM and the TGI [8] was 45.1 µM.
For `c1ccc(C(c2ccccc2)c2cccnc2)cc1`, the TGI [1] was > 100 µM, the TGI [2] was > 100 µM and the TGI [9] was > 100 µM. The TGI [3] was > 100 µM, the TGI [4] was > 100 µM and the TGI [5] was > 100 µM. For the same compound, the TGI [7] was > 100 µM.
For `O=C(NC(=O)c1cn(CCN(CCO)C(=O)NCCCCCCNC(=O)N(CCO)CCn2cc(C(=O)NC(=O)OCc3ccccc3)c(=O)[nH]c2=O)c(=O)[nH]c1=O)OCc1ccccc1`, the TGI [1] was > 100 µM, the TGI [2] was > 100 µM and the TGI [9] was > 100 µM. For the same compound, the TGI [3] was > 100 µM, the TGI [4] was > 100 µM and the TGI [5] was > 100 µM. The TGI [6] was > 100 µM and the TGI [7] was > 100 µM.
